Source: patent US10858626B2, “Adoptive immunotherapy for treating cancer” (UNIVERSITÉ DE LAUSANNE, priority 2014, dated 2020)

Legend:
kinases = settings: other kinases inhibited; cited from earlier work
TIE-2 = TIE-2 (Homo sapiens, UniProt Q02763); settings: read-out: IC 50 TIE-2; cited from earlier work
VEGFR-1 = VEGFR-1 (Homo sapiens, UniProt P17948); settings: cited from earlier work
breast tumor fragments = experiment: Expansion of T cells in vitro from breast tumor fragments treated with kinase inhibitors (Example 2); type: cell-based, human; settings: first 20 days of culture, high doses IL-2, 12 h inhibitor treatment
Text: The fragments were washed, placed in culture as previously described and 20 days later the number of T cells obtained were counted. Antibodies and multimers of MHC class I: antibodies specific for CD4, CD8, CD3 and CD28 were from Beckton Dikinson. Antibodies specific for PD-1 were from Affimetrix eBioscience (clone J105, PD-1 PerCP-eF710), anti-LAG-3 antibodies were from Enzo Life Science (clone 17B4, LAG-3-FITC), anti-CD137 antibodies were from Biolegend (clone 4B4-1, CD137-BV605). Fluorescently labelled Her2/neu MHC-classI multimers were from TCMetrix (Epalinges, Swizerland).

Chain of TIE-2 (Q02763 23-1124, species assumed): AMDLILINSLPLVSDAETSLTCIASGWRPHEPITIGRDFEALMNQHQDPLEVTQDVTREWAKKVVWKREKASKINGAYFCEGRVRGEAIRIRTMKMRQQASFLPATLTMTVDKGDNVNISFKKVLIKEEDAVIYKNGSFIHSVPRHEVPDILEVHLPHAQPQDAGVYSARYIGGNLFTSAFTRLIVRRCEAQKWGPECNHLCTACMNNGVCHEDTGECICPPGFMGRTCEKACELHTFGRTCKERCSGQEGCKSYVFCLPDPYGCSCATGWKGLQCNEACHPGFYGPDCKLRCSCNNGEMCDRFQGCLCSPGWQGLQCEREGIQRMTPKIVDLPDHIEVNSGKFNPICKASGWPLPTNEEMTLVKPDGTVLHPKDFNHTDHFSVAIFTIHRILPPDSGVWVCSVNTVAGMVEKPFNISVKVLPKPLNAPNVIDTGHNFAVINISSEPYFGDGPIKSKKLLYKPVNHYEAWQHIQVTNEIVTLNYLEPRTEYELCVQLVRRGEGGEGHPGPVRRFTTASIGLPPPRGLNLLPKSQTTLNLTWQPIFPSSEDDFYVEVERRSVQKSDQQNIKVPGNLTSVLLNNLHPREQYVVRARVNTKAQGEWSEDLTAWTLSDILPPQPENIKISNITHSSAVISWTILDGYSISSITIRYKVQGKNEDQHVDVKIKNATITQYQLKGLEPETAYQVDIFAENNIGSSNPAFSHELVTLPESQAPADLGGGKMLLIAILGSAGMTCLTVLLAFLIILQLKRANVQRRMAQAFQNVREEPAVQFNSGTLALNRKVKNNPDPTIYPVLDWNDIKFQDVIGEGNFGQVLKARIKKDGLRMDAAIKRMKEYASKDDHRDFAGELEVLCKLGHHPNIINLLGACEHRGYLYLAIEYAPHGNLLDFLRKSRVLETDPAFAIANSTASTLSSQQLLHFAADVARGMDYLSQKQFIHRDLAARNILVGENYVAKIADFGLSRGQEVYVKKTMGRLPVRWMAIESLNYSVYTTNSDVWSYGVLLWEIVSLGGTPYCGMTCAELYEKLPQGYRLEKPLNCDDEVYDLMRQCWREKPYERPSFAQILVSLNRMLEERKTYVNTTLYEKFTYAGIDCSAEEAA
Chain of VEGFR-1 (P17948 27-1338, species assumed): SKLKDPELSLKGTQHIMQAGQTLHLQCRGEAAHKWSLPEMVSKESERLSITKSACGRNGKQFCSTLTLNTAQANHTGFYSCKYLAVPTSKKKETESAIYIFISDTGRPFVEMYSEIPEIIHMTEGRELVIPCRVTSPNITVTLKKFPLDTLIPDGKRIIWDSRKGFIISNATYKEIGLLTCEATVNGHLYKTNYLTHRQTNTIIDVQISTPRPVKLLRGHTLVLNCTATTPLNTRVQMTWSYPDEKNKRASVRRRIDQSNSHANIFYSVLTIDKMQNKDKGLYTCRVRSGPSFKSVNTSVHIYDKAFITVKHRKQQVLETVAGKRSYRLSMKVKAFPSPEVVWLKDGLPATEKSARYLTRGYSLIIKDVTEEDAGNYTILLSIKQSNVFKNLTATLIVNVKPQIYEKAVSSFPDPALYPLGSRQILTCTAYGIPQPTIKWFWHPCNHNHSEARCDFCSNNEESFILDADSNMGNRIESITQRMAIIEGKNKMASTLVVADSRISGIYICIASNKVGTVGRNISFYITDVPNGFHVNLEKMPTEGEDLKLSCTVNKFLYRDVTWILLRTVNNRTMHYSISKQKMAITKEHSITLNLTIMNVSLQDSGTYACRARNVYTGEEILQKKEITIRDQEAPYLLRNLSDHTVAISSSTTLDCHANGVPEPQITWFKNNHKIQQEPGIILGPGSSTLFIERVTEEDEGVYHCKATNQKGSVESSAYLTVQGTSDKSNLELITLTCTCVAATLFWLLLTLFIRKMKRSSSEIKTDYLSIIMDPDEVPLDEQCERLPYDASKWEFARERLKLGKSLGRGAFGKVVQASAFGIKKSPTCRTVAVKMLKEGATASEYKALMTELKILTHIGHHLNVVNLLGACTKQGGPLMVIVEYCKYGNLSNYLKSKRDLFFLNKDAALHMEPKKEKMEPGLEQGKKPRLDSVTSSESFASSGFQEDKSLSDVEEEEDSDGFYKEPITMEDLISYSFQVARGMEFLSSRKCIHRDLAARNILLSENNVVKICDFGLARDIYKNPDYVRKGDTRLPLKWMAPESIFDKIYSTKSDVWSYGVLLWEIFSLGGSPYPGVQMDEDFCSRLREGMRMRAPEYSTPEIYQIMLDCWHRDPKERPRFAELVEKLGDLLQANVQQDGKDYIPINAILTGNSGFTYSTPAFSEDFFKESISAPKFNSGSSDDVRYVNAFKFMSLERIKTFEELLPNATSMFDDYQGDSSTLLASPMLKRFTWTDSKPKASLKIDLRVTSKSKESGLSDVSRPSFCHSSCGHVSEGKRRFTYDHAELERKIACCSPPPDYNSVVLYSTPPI

Structure (SMILES)	Additional inhibition reported (kinases)	IC50 (TIE-2) [nM]	other results
O=C(Nc1cc(Oc2cc(F)c(NC(=O)C3(C(=O)Nc4ccc(F)cc4)CC3)cc2F)ccn1)C1CC1 [Altiratinib (DCC-2701), Altiratinib]	Met	2	–
Cc1ccc(OC(=O)N(CC(=O)N[C@@H](C)C2CCCCC2)Cc2ccc(-c3cncc(C(=O)O)c3)cc2)cc1 [Compound 7, 5-[4-[[[2-[[(1S)-1-Cyclohexylethyl]amino]-2-oxoethyl][(4methylphenoxy)carbonyl]amino]methyl]phenyl]-3-pyridinecarboxylic acid]	–	300	–
Clc1ccc(Nc2nnc(Cc3ccncc3)c3ccccc23)cc1 [PTK787, Vatalanib]	c-Kit, PDGFR	–	–
CNC(=O)c1cc(Oc2ccc(NC(=O)Nc3cc(C(C)(C)C)nn3-c3ccc4ncccc4c3)c(F)c2)ccn1 [Rebastinib (DCC-2036), Rebastinib]	–	–	IC50 (VEGFR-1): 12 nM
COc1ccc2cc(-c3[nH]c(-c4ccc([S+](C)[O-])cc4)nc3-c3ccncc3)ccc2c1 (centres unmarked) [SB633825, 4-(5-(6-methoxynaphthalen-2-yl)-2-(4-(methylsulfinyl)phenyl)-1H-imidazol-4-yl)pyridine]	p38, PDGFR1	–	Number of T cells expanded per 1 mm3 of breast tumor tissue (breast tumor fragments): more than one million
COc1cc2nccc(Oc3ccc(NC(=O)Nc4cc(C)on4)c(Cl)c3)c2cc1OC [Tivozanib]	PDGFR, c-Kit	–	–
